The results in this text go back to patent US11834414B2, “1-methyl-4-[(4-phenylphenyl)sulfonylmethyl]cyclohexyanol and 1-methyl-4-[[4-(2-pyridyl)phenyl]sulfonylmethyl]cyclohexanol compounds and their therapeutic use” (Modern Biosciences Limited, priority 2018, dated 2023).

For data set [1], the system named is Thp1 human monocytic cells. The experiment in a line: Thp1 Monocyte ATP Production Assay. The format is cell-based. As to conditions: Thp1 cells, 24 hour incubation, ATPLite; 9-point range 10 μM to 10 nM, mean of 2 independent experiments. The gist of the method:
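Cells plated at 112500/well in glucose-free RPMI-1640 with 1% FBS and exposed to compound for 24 h at 37 °C/5% CO2. ATP quantified by luciferase luminescence (ATPlite) and expressed as % of control viability. IC50 from 4-parameter fit, mean of two experiments.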

The test system of a further data set is rat hepatocytes. Briefly: Rat hepatocyte stability. In kind it is in vitro ADME. The note with it: 1 μM, 60 minute incubation. The gist of the method:
(§1)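 Compounds (1 μM final, 0.1% DMSO, 0.9% acetonitrile) were incubated in duplicate with pooled rat or human hepatocytes at 37° C, sampled at 0–60 min and quenched with methanol. Remaining parent was measured by LC-MS/MS. Elimination rate constant came from the ln(concentration)–time slope, giving t1/2 and CLint scaled to hepatocyte concentration.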

A further data set concerns human hepatocytes. Briefly: Human hepatocyte stability. In kind it is in vitro ADME. The note with it: human hepatocytes, 1 μM, 60 minute incubation. The gist of the method:
as §1

The target in another data set is CYP2C9 (Homo sapiens (Human), UniProt P11712). Briefly: Human Cytochrome P450 Inhibition Assay (Bactosomes). The format is in vitro ADME. The note with it: recombinant Bactosomes, 10 minutes, 37° C.
The target in a further data set is CYP2C19 (Homo sapiens (Human), UniProt P33261). The data set is described as above. The format is in vitro ADME. As to conditions: recombinant Bactosomes, 10 minutes, 37° C.
A further data set concerns the target CYP2D6 (Homo sapiens (Human), UniProt P10635). The description is as above. In kind it is in vitro ADME. As to conditions: recombinant Bactosomes, 10 minutes, 37° C.
Another data set has as its target CYP3A4 (Homo sapiens (Human), UniProt P08684). The data set is described as above. The format is in vitro ADME. The note with it: recombinant Bactosomes, 10 minutes, 37° C.
Data set [2] relates to collagen-induced arthritis in DBA/1j mice. Briefly: Mouse Collagen-Induced Arthritis. In kind it is in vivo. The note with it: 10 mg/kg/day, once daily for 14 days, arthritic index vs control. How it is done: Seven- to eight-week-old male DBA/1j mice were used for all procedures. Animals were housed in groups of 10, and were maintained at 21° C.±2° C. on a 12-hour light/dark cycle with food and water ad libitum. Complete Freund's adjuvant (CFA) was prepared by emulsifying bovine type II collagen at 4 mg/mL with a 4 mg/mL suspension of Mycobacterium tuberculosis H37Ra in Incomplete Freund's Adjuvant (IFA) (0.85 mL paraffin oil and 0.15 mL mannide monooleate) in a 1:1 (v/v) ratio. All mice were immunised subcutaneously with 200 μg of bovine type II collagen in CFA. 21 days later, all mice were immunised subcutaneously with 100 μg of bovine type II collagen in IFA. The mice started to develop signs and symptoms of arthritis following the ‘booster’ immunisation.
For macroscopic assessment of arthritis, the following signs were monitored in each paw of each mouse three times per week and summed to generate the Arthritic Index (AI) (the maximum AI for one animal is 16): • 0=no visible effects of arthritis. • 1=oedema and/or erythema of 1 digit. • 2=oedema and/or erythema of 2 digits. • 3=oedema and/or erythema of more than 2 digits. • 4=severe arthritis of entire paw and digits.
Animals were sorted into treatment groups with a mean arthritic index of 2.5 and then dosed once daily for 14 days with compound: by oral gavage for test compounds, or by subcutaneous injection at a dose of 10 mg/kg for the positive control, etanercept. After completion of the experiment, the mice were sacrificed.
The data were analysed by generating an average of the arthritic index across each treatment group. The mean arthritic index was then compared to the arthritic index of control (untreated) animals using the following formula to generate a percentage inhibition of disease.

Another data set has as its target CYP1A2 (Homo sapiens (Human), UniProt P05177). The experiment in a line: Human Cytochrome P450 Inhibition Assay (Bactosomes).

Each structure is given as a SMILES string. Where only a bound is given, the exact number is not on record here.

CYP1A2, sequence (P05177 whole entry): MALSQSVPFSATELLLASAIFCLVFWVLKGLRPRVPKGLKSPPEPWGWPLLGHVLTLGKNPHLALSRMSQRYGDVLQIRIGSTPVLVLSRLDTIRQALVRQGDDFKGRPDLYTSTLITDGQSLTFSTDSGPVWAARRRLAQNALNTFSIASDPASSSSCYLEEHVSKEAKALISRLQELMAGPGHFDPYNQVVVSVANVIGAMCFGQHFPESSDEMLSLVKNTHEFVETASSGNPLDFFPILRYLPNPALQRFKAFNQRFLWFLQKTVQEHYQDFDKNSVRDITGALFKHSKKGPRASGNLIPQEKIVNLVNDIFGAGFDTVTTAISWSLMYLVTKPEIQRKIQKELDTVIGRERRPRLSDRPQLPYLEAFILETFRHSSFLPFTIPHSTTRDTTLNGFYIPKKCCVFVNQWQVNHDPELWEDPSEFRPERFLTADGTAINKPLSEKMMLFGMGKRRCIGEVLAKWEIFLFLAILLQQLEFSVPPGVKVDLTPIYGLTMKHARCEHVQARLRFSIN
CYP2C19, sequence (P33261 whole entry): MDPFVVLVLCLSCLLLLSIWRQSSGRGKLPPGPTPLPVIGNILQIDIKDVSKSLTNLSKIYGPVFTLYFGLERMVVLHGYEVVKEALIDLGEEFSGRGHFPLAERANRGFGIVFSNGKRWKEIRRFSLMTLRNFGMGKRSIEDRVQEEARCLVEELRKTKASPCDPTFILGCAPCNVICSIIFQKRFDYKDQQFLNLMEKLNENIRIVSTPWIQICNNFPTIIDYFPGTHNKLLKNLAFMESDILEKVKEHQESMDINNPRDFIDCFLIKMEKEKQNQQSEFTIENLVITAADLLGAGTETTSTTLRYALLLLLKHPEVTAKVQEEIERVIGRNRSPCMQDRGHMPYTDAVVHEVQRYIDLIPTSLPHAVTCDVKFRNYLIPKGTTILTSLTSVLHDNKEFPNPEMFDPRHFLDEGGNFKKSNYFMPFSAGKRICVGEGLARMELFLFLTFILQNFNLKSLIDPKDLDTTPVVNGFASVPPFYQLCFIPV
CYP2D6, sequence (P10635 whole entry): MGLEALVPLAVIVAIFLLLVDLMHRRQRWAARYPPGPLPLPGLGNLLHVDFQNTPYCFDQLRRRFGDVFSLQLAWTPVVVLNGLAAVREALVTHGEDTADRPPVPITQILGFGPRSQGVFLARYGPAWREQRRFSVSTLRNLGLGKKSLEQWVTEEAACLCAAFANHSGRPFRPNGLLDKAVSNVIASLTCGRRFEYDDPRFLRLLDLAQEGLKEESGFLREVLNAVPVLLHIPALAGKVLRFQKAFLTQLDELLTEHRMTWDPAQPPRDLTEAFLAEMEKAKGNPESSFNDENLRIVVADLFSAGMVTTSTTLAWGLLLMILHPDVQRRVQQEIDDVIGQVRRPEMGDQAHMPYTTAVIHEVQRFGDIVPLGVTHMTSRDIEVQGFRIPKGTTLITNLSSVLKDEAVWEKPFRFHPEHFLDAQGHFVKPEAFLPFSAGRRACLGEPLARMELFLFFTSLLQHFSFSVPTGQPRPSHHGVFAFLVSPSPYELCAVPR
CYP3A4, sequence (P08684 whole entry): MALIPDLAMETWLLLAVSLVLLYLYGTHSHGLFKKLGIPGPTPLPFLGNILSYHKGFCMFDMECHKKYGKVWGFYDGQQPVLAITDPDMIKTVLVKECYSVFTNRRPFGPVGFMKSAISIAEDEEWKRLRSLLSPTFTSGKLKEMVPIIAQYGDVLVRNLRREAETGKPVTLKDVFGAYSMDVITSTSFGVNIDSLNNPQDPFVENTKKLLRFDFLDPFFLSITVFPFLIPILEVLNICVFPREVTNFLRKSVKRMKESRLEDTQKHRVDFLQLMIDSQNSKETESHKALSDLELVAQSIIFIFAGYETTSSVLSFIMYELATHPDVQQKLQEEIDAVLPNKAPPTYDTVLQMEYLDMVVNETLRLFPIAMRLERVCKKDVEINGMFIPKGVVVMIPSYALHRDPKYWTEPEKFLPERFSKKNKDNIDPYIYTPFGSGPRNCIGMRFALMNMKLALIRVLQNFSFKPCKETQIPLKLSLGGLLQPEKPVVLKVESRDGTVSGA
CYP2C9, sequence (P11712 whole entry): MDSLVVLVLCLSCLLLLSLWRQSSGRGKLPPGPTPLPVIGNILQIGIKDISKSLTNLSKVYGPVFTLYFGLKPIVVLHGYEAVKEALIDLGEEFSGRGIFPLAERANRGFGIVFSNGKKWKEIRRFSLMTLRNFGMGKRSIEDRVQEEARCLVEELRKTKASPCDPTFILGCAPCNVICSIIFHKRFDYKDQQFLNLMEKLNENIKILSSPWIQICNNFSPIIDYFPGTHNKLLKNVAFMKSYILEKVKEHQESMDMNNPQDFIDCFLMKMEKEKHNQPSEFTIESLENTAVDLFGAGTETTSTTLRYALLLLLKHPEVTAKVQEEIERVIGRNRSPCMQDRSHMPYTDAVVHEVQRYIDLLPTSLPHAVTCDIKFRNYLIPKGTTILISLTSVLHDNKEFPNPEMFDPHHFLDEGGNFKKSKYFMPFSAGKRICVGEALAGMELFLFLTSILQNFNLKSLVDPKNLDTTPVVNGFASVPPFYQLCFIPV

Consider `C[C@]1(O)CC[C@@H](NS(=O)(=O)c2ccc(-c3ccc(F)cc3F)cc2)CC1` [ABD899, reference compound], for which the IC50 is 200 nM in [1]; 3.9 µM on CYP2C9; 7.3 µM at CYP2C19; 45.3 µM on CYP2D6; 21.6 µM at CYP3A4; over 25 µM on CYP1A2. Moreover, in the data set on rat hepatocytes, the “Rat Clint (μL/min/million cells)” value was 57 μL/min/million cells. The “Rat t1/2” value in the data set with rat hepatocytes is recorded as 24 min. Moreover, in the data set on human hepatocytes, the “Human Clint (uL/min/million cells)” value is 9 uL/min/million cells. Besides, the “Human t1/2” value in the data set on human hepatocytes is 149 min. In addition, the “% inhibition of disease” value in data set [2] was 77%.
